{
  "source": "patent US20190151283A1",
  "about": "“NON-STEROIDAL SELECTIVE GLUCOCORTICOID RECEPTOR AGONISTIC MODULATORS (SEGRAMs) AND USES THEREOF” (ASSOCIATION POUR LA RECHERCHE À L'IGBMC (ARI), priority 2017, published 2019)",
  "key": {"Balb/C mouse ears [1]": {"tested_on": "Balb/C mouse ears", "assay": "Aldara-induced psoriasis-like skin inflammation", "type": "in vivo", "details": "for induced expression of the Th17 cytokines IL-17a, IL-17c, IL-17f and IL-22: ear extracts, q-RT-PCR, D10; for Aldara-induced psoriasis-like skin inflammation, H&E histology: mouse, in vivo; for Aldara-induced psoriasis-like skin inflammation: topical co-treatment for the last 5 days, 1 nmole/cm^2", "method": "Balb/C mouse ears were topically treated with Aldara® to induce a psoriasis-like skin inflammation (Vinter et al., 2015. Br J Dermatol. 172(2):345-53). Mice were treated for 9 days with Aldara®, including a co-topical treatment for the last 5 days with either ethanol (Vehicle), Dex, CpdX or CpdX-D3.\nAt D10, RNA transcripts were extracted from mouse ears and IL-17a, IL-17c, IL-17f and IL-22 transcripts were analyzed by q-RT-PCR. Ear skin samples were also harvested for histological analyses (with H&E staining)."}, "B6 male mice": {"tested_on": "B6 male mice", "assay": "Body weight and body composition after three-month treatment", "type": "in vivo, mouse", "details": "s.c. 1 mg/kg daily, 3 months, pDEXA", "method": "B6 male mice (8-week-old) were daily subjected for three months to a subcutaneous injection of either vehicle (NaCl 0.9%), Dex, CpdX or CpdX-D3 (1 mg/kg body weight, diluted in vehicle. A pDEXA machine was used to determine the lean mass and fat mass. The statistical significance was calculated through Krustal-Walis test followed by a Dunn's multiple comparison test, *p<0.05; **p<0.01; ***p<0.001."}, "mice": {"tested_on": "mice", "assay": "Ovalbumin (OVA)-induced asthma-like allergic lung inflammation", "type": "in vivo, mouse", "method": "Glucocorticoids have been (Pearlman et al., 1997. Ann Allergy Asthma Immunol. 78(4):356-62), and are still, widely used in asthma therapy. In order to investigate the possible CpdX anti-inflammatory activity in vivo, mice were sensitized and challenged with either ovalbumin (OVA) or house dust mite (HDM) to induce an asthma-like allergic lung inflammation.\nMice were intraperitoneally sensitized with either 50 μg OVA together with alum or with alum alone on D0, D7 and D14. Mice were then subdivided into three groups, and on D19, D20 and D21, they were intranasally (i.n.) challenged with 10 μg OVA. The first and the second group received intranasally 0.5 mg/kg of body weight of Dex or CpdX respectively, while the third group served as a control.\nOn D22, the lung allergic inflammation was assessed for each mouse by examination of the bronchoalveolar lavage fluid (BAL). The total BAL cells, eosinophils, neutrophils, macrophages and lymphocytes were counted. RNA transcripts were extracted from lung samples and RNA transcripts of IL-1β, IL-6, IL-4, IL-5, IL-10, IL-13, Eotaxin, CCL4 and TNFα were analyzed by q-RT-PCR. Histological (with H&E staining) and immunohistochemical (with eosinophil-specific and neutrophil-specific antibodies) analyses of lung tissues were also carried out."}, "[2]": {"target": "T1, glucocorticoid receptor (GR) (Mus musculus, UniProt P06537)", "T1 construct": "RNA transcripts were then extracted from mouse ears; from tissue; host or cells: ear skin of Balb/C mice (in vivo topical treatment)", "T1 sequence (P06537 1-792)": "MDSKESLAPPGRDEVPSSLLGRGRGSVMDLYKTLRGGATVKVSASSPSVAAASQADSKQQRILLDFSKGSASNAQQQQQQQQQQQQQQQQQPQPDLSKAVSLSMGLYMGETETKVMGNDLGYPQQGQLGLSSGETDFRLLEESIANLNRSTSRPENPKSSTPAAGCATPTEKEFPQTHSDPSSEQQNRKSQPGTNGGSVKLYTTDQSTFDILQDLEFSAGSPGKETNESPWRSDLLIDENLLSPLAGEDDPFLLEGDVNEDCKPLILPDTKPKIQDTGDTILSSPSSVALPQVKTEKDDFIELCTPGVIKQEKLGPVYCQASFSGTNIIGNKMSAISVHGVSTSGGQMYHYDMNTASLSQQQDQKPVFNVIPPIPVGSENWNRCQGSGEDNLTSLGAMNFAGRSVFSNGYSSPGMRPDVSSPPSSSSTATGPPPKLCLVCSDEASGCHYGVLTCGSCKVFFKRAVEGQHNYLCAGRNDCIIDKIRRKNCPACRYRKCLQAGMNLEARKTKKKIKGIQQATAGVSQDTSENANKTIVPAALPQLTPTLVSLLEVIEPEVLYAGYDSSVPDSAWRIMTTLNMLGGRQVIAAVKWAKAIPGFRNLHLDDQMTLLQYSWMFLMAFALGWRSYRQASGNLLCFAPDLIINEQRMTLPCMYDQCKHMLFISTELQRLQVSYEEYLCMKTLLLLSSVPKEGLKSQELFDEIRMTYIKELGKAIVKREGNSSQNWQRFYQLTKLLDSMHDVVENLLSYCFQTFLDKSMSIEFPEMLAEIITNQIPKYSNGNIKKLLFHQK", "assay": "GR transcriptional functions in mouse ears after topical 18-hour treatment (q-RT-PCR)", "type": "in vivo", "method": "RNA transcripts were then extracted from mouse ears and the transcripts of 4 genes were analyzed by q-RT-PCR: • (i) the directly GR-transactivated gene of the mTOR inhibitor REDD1, • (ii) the GR-directly transrepressed gene of keratin 5 (K5) and • (iii) the GR-indirectly “tethered” transrepressed genes of interleukin-1β (IL-1β) and interleukin-6 (IL-6), both being activated in presence of 12-O-tetradecanoylphorbol-13-acetate (TPA)."}, "Balb/C mouse ears [3]": {"tested_on": "Balb/C mouse ears", "assay": "TPA-induced irritant contact dermatitis-like inflammation", "type": "in vivo", "details": "for TPA-induced ear skin inflammation, histological analysis: compared to the control; for TPA-induced ear skin inflammation, histological analysis / expression of TSLP in TPA-treated mouse epidermis: data not shown; for TPA-induced transcription of pro-inflammatory genes: ear extracts, q-RT-PCR, D10; for expression of TSLP in TPA-treated mouse epidermis: immunochemistry with TSLP-specific antibody; for TPA-induced skin inflammation: topical, 5 days co-treatment with TPA", "method": "Balb/C mouse ears were topically treated with TPA to induce an “irritant contact dermatitis-like inflammation”.\nMice were treated for 4 days with TPA, then for 5 extra days (until D9) with either vehicle, TPA alone, TPA and Dex, TPA and CpdX or TPA and CpdX-D3.\nAt D10, RNA transcripts were extracted from mouse ear skin samples and the transcripts of CCL4, COX2, MMP13, IL-1β, IL-6, TNF-α, TSLP, IL-22 and IL-23 were analyzed by q-RT-PCR. Ear skin was harvested, and histological (with H&E staining) and immunohistochemical (with anti-TSLP antibodies) analyses were carried out."}, "[4]": {"details": "topical 18 h, 1 nmole/cm^2, q-RT-PCR, vs Vehicle"}},
  "data": [
    {"smiles": "COc1ccc(F)cc1C(C)(C)CC(O)(CNc1ccc2c(c1)COC2=O)C(F)(F)F", "note": "(racemic) [CpdX, 5-[4-(5-fluoro-2-methoxyphenyl)-2-hydroxy-4-methyl-2-(trifluoromethyl)pentylamino]-isobenzofuran-1(3H)-one]", "values": [
      {"measurement": "induced expression of the Th17 cytokines IL-17a, IL-17c, IL-17f and IL-22", "setting": "Balb/C mouse ears [1]", "value": "similarly reduced"},
      {"measurement": "Aldara-induced psoriasis-like skin inflammation, H&E histology", "setting": "Balb/C mouse ears [1]", "value": "could reduce"},
      {"measurement": "Aldara-induced psoriasis-like skin inflammation", "setting": "Balb/C mouse ears [1]", "value": "significantly decreased"},
      {"measurement": "fat mass", "setting": "B6 male mice", "value": "commensurate increase"},
      {"measurement": "lean percentage / lean mass", "setting": "B6 male mice", "value": "commensurate increase"},
      {"measurement": "eosinophils and neutrophils in lung, immunohistochemistry", "setting": "mice; data not shown", "value": "similarly decreased"},
      {"measurement": "peribronchiolar and perivascular inflammatory cell infiltration", "setting": "mice; histology of lung paraffin sections", "value": "strongly decreased"},
      {"measurement": "number of macrophages in BAL", "setting": "mice; intranasal 0.5 mg/kg on D19-D21, BAL on D22", "value": "unchanged"},
      {"measurement": "total number of BAL cells, eosinophils, neutrophils and lymphocytes", "setting": "mice; intranasal 0.5 mg/kg on D19-D21, BAL on D22, vs control group", "value": "significantly decreased"},
      {"measurement": "expressions of IL-1β, IL-6, IL-4, IL-5, IL-10, IL-13, Eotaxin, CCL4 and TNFα in lung samples", "setting": "mice; q-RT-PCR, D22", "value": "significantly and similarly decreased"},
      {"measurement": "GR functions induced (direct transactivation, direct transrepression, indirect tethered transrepression)", "setting": "[2]; in vivo transcriptional analyses, 1 nmole/cm^2", "value": "selectively exhibits an indirect tethered transrepression activity"},
      {"measurement": "direct transrepression of the K5 gene (relative RNA expression)", "setting": "[2]; [4]", "value": "unchanged"},
      {"measurement": "transactivation of the REDD1 gene (relative RNA expression)", "setting": "[2]; [4]", "value": "unchanged"},
      {"measurement": "TPA-induced ear skin inflammation, histological analysis", "setting": "Balb/C mouse ears [3]", "value": "significantly decreased"},
      {"measurement": "TPA-induced transcription of pro-inflammatory genes", "setting": "Balb/C mouse ears [3]", "value": "repressed, as efficiently as Dex"},
      {"measurement": "expression of TSLP in TPA-treated mouse epidermis", "setting": "Balb/C mouse ears [3]", "value": "similarly strongly decreased"},
      {"measurement": "TPA-induced skin inflammation", "setting": "Balb/C mouse ears [3]", "value": "significantly decreased"}
    ]},
    {"smiles": "[2H]C([2H])([2H])Oc1ccc(F)cc1C(C)(C)CC(O)(CNc1ccc2c(c1)COC2=O)C(F)(F)F", "note": "(racemic) [CpdX-D3, 5-{4-[2-(methoxy-D3)-5-fluorophenyl]-2-hydroxy-4-methyl-2-(trifluoro-methyl)pentylamino}isobenzofuran-1(3H)-one]", "values": [
      {"measurement": "induced expression of the Th17 cytokines IL-17a, IL-17c, IL-17f and IL-22", "setting": "Balb/C mouse ears [1]", "value": "similarly reduced"},
      {"measurement": "Aldara-induced psoriasis-like skin inflammation, H&E histology", "setting": "Balb/C mouse ears [1]", "value": "could reduce"},
      {"measurement": "Aldara-induced psoriasis-like skin inflammation", "setting": "Balb/C mouse ears [1]", "value": "significantly decreased"},
      {"measurement": "fat mass", "setting": "B6 male mice", "value": "commensurate increase"},
      {"measurement": "lean percentage / lean mass", "setting": "B6 male mice", "value": "commensurate increase"},
      {"measurement": "TPA-induced ear skin inflammation, histological analysis", "setting": "Balb/C mouse ears [3]", "value": "significantly decreased"},
      {"measurement": "TPA-induced transcription of pro-inflammatory genes", "setting": "Balb/C mouse ears [3]", "value": "repressed, as efficiently as Dex"},
      {"measurement": "expression of TSLP in TPA-treated mouse epidermis", "setting": "Balb/C mouse ears [3]", "value": "similarly strongly decreased"},
      {"measurement": "TPA-induced skin inflammation", "setting": "Balb/C mouse ears [3]", "value": "significantly decreased"}
    ]}
  ]
}
